Literature values in publication PMC9688344, “[^225Ac]Ac-SibuDAB for Targeted Alpha Therapy of Prostate Cancer: Preclinical Evaluation and Comparison with [^225Ac]Ac-PSMA-617” (Cancers, 2022).
Where two headings read alike, the source gives them in different places.

Tests used:
[1] = cited from earlier work
[2] = test system: PSMA-positive PC-3 PIP cells; conditions: 4 h incubation; ref Tschan et al., Eur J Nucl Med Mol Imaging 2022; cited from earlier work
PSMA = target: T1, PSMA (Homo sapiens, UniProt Q04609); conditions: ref Deberle & Benešová et al., Theranostics 2020; cited from earlier work
T1 construct: expressed in transfected cells; host or cells: PC-3 PIP prostate cancer cells (transduced to express PSMA), provided by Prof; Dr. Martin Pomper, Johns Hopkins University
T1 sequence (Q04609 whole entry): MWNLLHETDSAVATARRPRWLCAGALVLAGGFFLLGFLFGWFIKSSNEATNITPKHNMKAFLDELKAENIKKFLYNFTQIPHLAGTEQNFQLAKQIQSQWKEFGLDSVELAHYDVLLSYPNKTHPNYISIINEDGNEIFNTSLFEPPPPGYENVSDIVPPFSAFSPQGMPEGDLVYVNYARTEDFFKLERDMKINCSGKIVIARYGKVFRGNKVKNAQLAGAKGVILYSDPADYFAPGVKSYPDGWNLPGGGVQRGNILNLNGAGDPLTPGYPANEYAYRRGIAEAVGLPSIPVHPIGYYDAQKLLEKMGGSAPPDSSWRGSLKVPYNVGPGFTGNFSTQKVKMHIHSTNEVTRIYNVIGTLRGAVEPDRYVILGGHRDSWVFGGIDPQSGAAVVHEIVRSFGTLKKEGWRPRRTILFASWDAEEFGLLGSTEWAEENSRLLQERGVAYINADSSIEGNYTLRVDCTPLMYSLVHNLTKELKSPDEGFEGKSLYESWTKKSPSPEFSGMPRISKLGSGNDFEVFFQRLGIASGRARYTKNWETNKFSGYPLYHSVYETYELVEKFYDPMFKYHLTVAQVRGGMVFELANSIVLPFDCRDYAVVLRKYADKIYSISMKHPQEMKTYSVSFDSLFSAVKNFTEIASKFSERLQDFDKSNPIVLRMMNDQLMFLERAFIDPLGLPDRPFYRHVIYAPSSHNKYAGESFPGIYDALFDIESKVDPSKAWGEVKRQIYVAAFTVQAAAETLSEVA

[3] = test system: PC3-PIP/flu tumor-bearing mice; conditions: ref Benešová et al., Mol Pharm 2018, cited from earlier work
[4] = patients; cited from earlier work

O=C([O-])CN1CCN(CC(=O)[O-])CCN(CC(=O)NCC2CCC(C(=O)NC(Cc3ccc4ccccc4c3)C(=O)NCCCCC(NC(=O)NC(CCC(=O)O)C(=O)O)C(=O)O)CC2)CCN(CC(=O)[O-])CC1.[177Lu+3] (stereo not drawn) [[^177Lu]Lu-PSMA-617]
logD value [1]: −4.4 ± 0.2 | Cell uptake [2]: 60 ± 5% | Internalized fraction [2]: 13 ± 2% | Kd (PSMA): 13 nM | Blood, accumulated activity ([3]; 1 h p.i.): 0.50 ± 0.06 % IA/g | Bone, accumulated activity ([3]; 1 h p.i.): 0.21 ± 0.04 % IA/g | Heart, accumulated activity ([3]; 1 h p.i.): 0.29 ± 0.03 % IA/g | Intestines, accumulated activity ([3]; 1 h p.i.): 0.24 ± 0.01 % IA/g | Kidneys, accumulated activity ([3]; 1 h p.i.): 9.8 ± 1.4 % IA/g | Liver, accumulated activity ([3]; 1 h p.i.): 0.20 ± 0.04 % IA/g | Lung, accumulated activity ([3]; 1 h p.i.): 0.57 ± 0.07 % IA/g | Muscle, accumulated activity ([3]; 1 h p.i.): 0.25 ± 0.20 % IA/g | PC-3 PIP tumor, accumulated activity ([3]; 1 h p.i.): 44 ± 12 % IA/g | PC-3 flu tumor, accumulated activity ([3]; 1 h p.i.): 0.28 ± 0.04 % IA/g | Salivary glands, accumulated activity ([3]; 1 h p.i.): 0.42 ± 0.30 % IA/g | Spleen, accumulated activity ([3]; 1 h p.i.): 0.63 ± 0.27 % IA/g | Stomach, accumulated activity ([3]; 1 h p.i.): 0.18 ± 0.02 % IA/g | Tumor-to-blood ratio ([3]; 1 h p.i.): 88 ± 13 | Tumor-to-kidney ratio ([3]; 1 h p.i.): 4.5 ± 0.7 | Tumor-to-liver ratio ([3]; 1 h p.i.): 213 ± 17 | Blood, accumulated activity ([3]; 4 h p.i.): ≤ 0.10 % IA/g | Bone, accumulated activity ([3]; 4 h p.i.): ≤ 0.10 % IA/g | Heart, accumulated activity ([3]; 4 h p.i.): ≤ 0.10 % IA/g | Intestines, accumulated activity ([3]; 4 h p.i.): ≤ 0.10 % IA/g | Kidneys, accumulated activity ([3]; 4 h p.i.): 3.7 ± 1.1 % IA/g | Liver, accumulated activity ([3]; 4 h p.i.): ≤ 0.10 % IA/g | Lung, accumulated activity ([3]; 4 h p.i.): ≤ 0.10 % IA/g | Muscle, accumulated activity ([3]; 4 h p.i.): ≤ 0.10 % IA/g | PC-3 PIP tumor, accumulated activity ([3]; 4 h p.i.): 56 ± 8 % IA/g | PC-3 flu tumor, accumulated activity ([3]; 4 h p.i.): ≤ 0.10 % IA/g | Salivary glands, accumulated activity ([3]; 4 h p.i.): ≤ 0.10 % IA/g | Spleen, accumulated activity ([3]; 4 h p.i.): 0.15 ± 0.04 % IA/g | Stomach, accumulated activity ([3]; 4 h p.i.): ≤ 0.10 % IA/g | Tumor-to-blood ratio ([3]; 4 h p.i.): 2315 ± 108 | Tumor-to-kidney ratio ([3]; 4 h p.i.): 16 ± 2 | Tumor-to-liver ratio ([3]; 4 h p.i.): 598 ± 108 | Blood, accumulated activity ([3]; 24 h p.i.): ≤ 0.10 % IA/g | Bone, accumulated activity ([3]; 24 h p.i.): ≤ 0.10 % IA/g | Heart, accumulated activity ([3]; 24 h p.i.): ≤ 0.10 % IA/g | Intestines, accumulated activity ([3]; 24 h p.i.): ≤ 0.10 % IA/g | Kidneys, accumulated activity ([3]; 24 h p.i.): 0.76 ± 0.15 % IA/g | Liver, accumulated activity ([3]; 24 h p.i.): ≤ 0.10 % IA/g | Lung, accumulated activity ([3]; 24 h p.i.): ≤ 0.10 % IA/g | Muscle, accumulated activity ([3]; 24 h p.i.): ≤ 0.10 % IA/g | PC-3 PIP tumor, accumulated activity ([3]; 24 h p.i.): 37 ± 6 % IA/g | PC-3 flu tumor, accumulated activity ([3]; 24 h p.i.): ≤ 0.10 % IA/g | Salivary glands, accumulated activity ([3]; 24 h p.i.): ≤ 0.10 % IA/g | Spleen, accumulated activity ([3]; 24 h p.i.): ≤ 0.10 % IA/g | Stomach, accumulated activity ([3]; 24 h p.i.): ≤ 0.10 % IA/g | Tumor-to-blood ratio ([3]; 24 h p.i.): 2730 ± 195 | Tumor-to-kidney ratio ([3]; 24 h p.i.): 50 ± 4 | Tumor-to-liver ratio ([3]; 24 h p.i.): 528 ± 51 | Blood, accumulated activity ([3]; 48 h p.i.): ≤ 0.10 % IA/g | Bone, accumulated activity ([3]; 48 h p.i.): ≤ 0.10 % IA/g | Heart, accumulated activity ([3]; 48 h p.i.): ≤ 0.10 % IA/g | Intestines, accumulated activity ([3]; 48 h p.i.): ≤ 0.10 % IA/g | Kidneys, accumulated activity ([3]; 48 h p.i.): 0.35 ± 0.05 % IA/g | Liver, accumulated activity ([3]; 48 h p.i.): ≤ 0.10 % IA/g | Lung, accumulated activity ([3]; 48 h p.i.): ≤ 0.10 % IA/g | Muscle, accumulated activity ([3]; 48 h p.i.): ≤ 0.10 % IA/g | PC-3 PIP tumor, accumulated activity ([3]; 48 h p.i.): 28 ± 4 % IA/g | PC-3 flu tumor, accumulated activity ([3]; 48 h p.i.): ≤ 0.10 % IA/g | Salivary glands, accumulated activity ([3]; 48 h p.i.): ≤ 0.10 % IA/g | Spleen, accumulated activity ([3]; 48 h p.i.): ≤ 0.10 % IA/g | Stomach, accumulated activity ([3]; 48 h p.i.): ≤ 0.10 % IA/g | Tumor-to-blood ratio ([3]; 48 h p.i.): 3776 ± 585 | Tumor-to-kidney ratio ([3]; 48 h p.i.): 81 ± 11 | Tumor-to-liver ratio ([3]; 48 h p.i.): 710 ± 97 | salivary gland uptake [4]: 1.41 ± 0.53 Gy/GBq
